In patent US8911953B2, “TDF-related compounds and analogs thereof, analogs and bioactive fragments” (Thrasos Innovation, Inc., priority 2005, dated 2014):
Positions of bridges follow the written chain, without caps; N, C: chain ends. No end group written: not given here.

Experiments:
HK-2 cells = assay: Smad1 phosphorylation and nuclear translocation in HK-2 cells (immunofluorescence); assay type: cell-based, human; details: 1.3 uM and 33 uM compound
Procedure: Phosphorylation and nuclear translocation of Smads occurs following the activation of Type I and Type II receptors and subsequent signal transduction to intracellular Smad targets. Phosphorylation and nuclear translocation of R-Smad in HK-2, vascular endothelial, human prostate or other cells by TDFRP compounds is assayed by immuno-fluorescent microscopy methods, using anti-phospho Smad 1/5 antibodies according to the procedure of H Aoki, M Fujii, T Imamura, K Yagi, K Takehara, M Kato and K Miyazono. J. of Cell Sci. 114, 1483-1489, 2001) and by Western blot analysis (FIGS. 2, 3, 18, 2X).
For example, HK-2, human proximal tubule cells are incubated in culture medium alone or exposed TDFRP or control compounds for one hour ten minutes at 37 degree C. BMP-7 served as a positive control in the assay. Each well is rinsed with 1 mL prewarmed medium. 1 mL per well of cold Acetone/Methanol mix (1:1) is added and incubated for 2 minutes at room temperature to fix the cells. Wells are washed with 1 mL of cold PBS and blocked with 1 mL blocking buffer (3% BSA, 1% goat serum in PBS) for 7 minutes. Wells are aspirated without disturbing the cells, and 500 uL/well primary antibody is added (anti-phospho-Smad 1) at 0.056 ug/mL concentration in 3% BSA in PBS (no goat serum). Cells are incubated overnight at 4 degrees C. […]

STZ CD1 mice = assay: Streptozotocin (STZ)-induced diabetic nephropathy model; assay type: in vivo, mouse; details: ip 5 mg/kg/24 hr, month 5 through 6
Procedure: Reversal of interstitial fibrosis by TDFRP compounds in a CD1 mouse model of streptozotocin (STZ)-induced diabetic nephropathy. A. Schematic of the STZ experimental protocol. Mice were injected with streptozotocin at Day 0 (D0) to induce diabetes and renal injury and sacrificed at 6 months (6M). Vehicle or BMP-7 (positive control) was administered from D0 through 6 months (6M). TDFRP (SEQ ID NO:45) was administered either orally or intraperitoneally from month 5 (5M) through 6M for 30 total days.; B: Kidney section of vehicle-treated STZ animal showing significant interstitial fibrosis; C: Kidney section of STZ animal that received ip administration of TDFRP compound (SEQ ID NO:45) (5 mg/kg/24 hr).
STZ-induced Type 1 diabetes is a widely used experimental model for diabetic nephropathy. Mice given iv STZ develop a progressive loss of pancreatic beta cells culminating in diabetes and renal damage within a six month period of time. In a typical experiment, TDFRP compounds can alleviate fibrosis, reduce proteinuria and protect the kidneys from STZ damage.
The effect of TDFRP compounds on cell damage due to diabetic nephropathy is measured by the method of Wang and coworkers (Wang et al., (2003) 63(6): 2037) (FIG. 8A). Diabetes is induced in 200 g rats by a single dose of streptozotocin.

LNCaP = assay: Cancer cell proliferation, tritiated thymidine incorporation; assay type: cell-based, human; details: LNCaP cultured in vitro
Description: (§1) TDFRP Compound Inhibition of LNCaP Cancer Cell Proliferation. BMP-6 and a TDFRP compound (SEQ ID NO:45) inhibited the proliferation of prostate cancer cells (LNCaP and PC-3) cultured in vitro as detected by the incorporation of tritiated thymidine (a measure of cell proliferation.
(§2) Prostate cancer is one of the most common cancers in men. […] Moreover, it has been shown that BMP signals inhibit the growth and the proliferation of human prostate tumor cells by upregulating the cyclin-dependent kinase inhibitor (CDKI) p21 (CIP1/WAF1) and decreasing the activity of Cdk2, leading to hypophosphorylation of Rb proteins. TDFRP compounds have been screened in in vitro prostate and bladder cancer bioassays to assess growth inhibitory activity of the compounds (FIG. 3). ^3H-thymidine incorporation is used as a marker for cell proliferation activity in human prostate and bladder cancer cell lines. Cisplatin inhibits ^3H-thymidine incorporation, indicating a tumor-growth suppressive activity of cisplatin in both human prostate and bladder cancer cells. TDFRP compounds are assayed in these cancer cells for the ability to induce receptor-regulated Smad 1/5 phosphorylation in a dose-dependent manner (FIG.).
as §2, with “(FIGS. 3, 28).” for “(FIG. 3).”, “(FIGS. 3, 28).” for “(FIG.).”

PC-3 = assay: as above; assay type: cell-based, human; details: PC-3 cultured in vitro
Description: as §1, §2
as §2, with “(FIGS. 3, 28).” for “(FIG. 3).”, “(FIGS. 3, 28).” for “(FIG.).”

## CYFDDSSNVLCKKYRS (disulfide 1-11 (inferred); not fully specified) [SEQ ID NO:45]
HK-2 cells
  Smad1 phosphorylation, activation and translocation in the nucleus: Smad1 phosphorylation, activation and translocation in the nucleus
STZ CD1 mice
  renal interstitial fibrosis: effectively reversed
LNCaP
  proliferation (incorporation of tritiated thymidine): inhibited
PC-3
  proliferation (incorporation of tritiated thymidine): inhibited
